Like-named read-outs stand apart in the source and are kept apart here.
Assays:
[1] = test system: heterozygous (Het) female Mecp2 mutant mice; experiment: Foot slip; format: in vivo, mouse; details: chronic treatment, 24 h after last treatment (data not shown)
Protocol: Small-molecule compounds were diluted in saline and delivered by i.p. injection. To define the acute effects of single drug treatments, behavioral testing was initiated 1 h after dosing. Durable effects of single drug treatments were evaluated 24 h after dosing. To define the effects of repeated dosing, mice were treated once every 3 days (q72 h) for 4 or 8 weeks, and behavioral testing was performed 24 h after the last dose.
Foot slip was used to assess locomotor coordination and spontaneous movement on a challenging substrate. Animals were placed on an elevated wire mesh surface (50 cm^2) with 1 cm^2 openings and allowed to freely explore for 5 min ([Starkey et al., 2005]). Total distance traveled was measured by a computer-operated animal activity system (ANY-maze, Stoelting). The total number of forepaw and hindpaw slips, where the foot came completely through the grate with no toes remaining on the grid, was manually counted, and the number of slips/cm traveled was calculated.
Figure S3. Single administration of PTX-BD4-3 reduces foot slip errors in Het mice. Mice received a single injection of PTX-BD4-3 (P.1, P.5, P.50) one hour prior to the beginning of foot slip testing. n = 10-23 animals derived from 3 […]
***p<0.001 compared to saline-treated Wt mice (V, black bar), †p<0.05 compared to saline-treated Het mice (V, grey bar); One-Way ANOVA with LSD post-hoc analysis. […]

[2] = molecular target: T1, NK3 (h) (Homo sapiens, UniProt P29371); experiment: Cerep ExpresSProfile radioligand binding; details: 10 micromolar; antagonist radioligand; read-out: % Inhibition of Control Specific Binding 2nd
T1 construct: purchased Cerep (ExpresSProfile)
Protocol: (§1) To evaluate the relative binding specificity of LM22A-4 ([Massa et al., 2010]) and PTX-BD4-3, binding to a broad range of 55 pharmacologically relevant receptors, including numerous neurotransmitter and G-protein coupled receptors was assessed using standard radioligand competition binding assays (ExpressSProfile) performed by Cerep, Inc. (Seattle, WA, USA). In addition, ADME-Tox analysis was performed by Cerep, Inc. All experimental conditions are described on the Cerep website (www.cerep.fr). […]
(§2) Table S1. In vitro binding assays. An ExpresSProfile screen of PTX-BD4-3 binding to a panel of pharmacologically relevant receptors was conducted by Cerep, Inc.
(§3) (Eurofins Panlabs, MO). The results are expressed as percent inhibition of control specific binding obtained in the presence of 10 micromolar PTX-BD4-3. In this assay, values below 50% indicate no specific binding of PTX-BD4-3. The assay was negative for PTX-BD4-3 binding to all of the 55 receptors in the screen.
(§4) (also on this page, place not known: 2B 5‐HT 3 5‐HT 5a 5‐HT 6 5‐HT 7 (agonis t VPAC 1 V 1 Ca 2+ K V SK Ca Na + Cl ‐ 5‐HT Disease Models & Mechanisms: doi:10.1242/dmm.044685: Supplementary information Disease Models & Mechanisms • Supplementary information)

[3] = molecular target: T2, 5-HT3 (h) (Homo sapiens, UniProt P46098); experiment: Cerep ExpresSProfile radioligand binding; details: 10 micromolar, antagonist radioligand
T2 construct: Cerep, Inc. (contract screen)
T2 sequence (P46098 24-478): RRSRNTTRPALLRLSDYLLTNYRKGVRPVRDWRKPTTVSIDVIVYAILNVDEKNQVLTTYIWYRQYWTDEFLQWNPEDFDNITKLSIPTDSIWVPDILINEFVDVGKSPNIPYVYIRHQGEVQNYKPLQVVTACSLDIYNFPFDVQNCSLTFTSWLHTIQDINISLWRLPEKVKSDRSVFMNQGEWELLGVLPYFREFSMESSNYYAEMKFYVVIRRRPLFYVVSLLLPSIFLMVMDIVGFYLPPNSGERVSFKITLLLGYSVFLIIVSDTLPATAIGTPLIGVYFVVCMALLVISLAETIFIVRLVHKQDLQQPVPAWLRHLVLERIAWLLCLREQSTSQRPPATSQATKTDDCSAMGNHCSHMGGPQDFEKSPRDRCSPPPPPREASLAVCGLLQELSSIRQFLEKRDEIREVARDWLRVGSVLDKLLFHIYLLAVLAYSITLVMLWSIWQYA
Protocol: as §1, §2, §3, §4

[4] = molecular target: T3, δ2 (DOP) (h) (Homo sapiens, UniProt P41143); experiment: Cerep ExpresSProfile radioligand binding; details: 10 micromolar; agonist radioligand; read-out: % Inhibition of Control Specific Binding 2nd
T3 construct: purchased Cerep (ExpresSProfile)
Protocol: as §1, §2, §3, §4

[5] = molecular target: T4, 5-HT2B (h) (Homo sapiens, UniProt P41595); experiment: Cerep ExpresSProfile radioligand binding; details: 10 micromolar, agonist radioligand
T4 construct: Cerep, Inc. (contract screen)
Protocol: as §1, §2, §3, §4

[6] = molecular target: T5, 5-HT7 (h) (Homo sapiens, UniProt P34969); experiment: Cerep ExpresSProfile radioligand binding; details: 10 micromolar, agonist radioligand
T5 construct: Cerep, Inc. (contract screen)
Protocol: as §1, §2, §3, §4

[7] = test system: Ca2+ channel (L, verapamil site) (phenylalkylamine); experiment: Cerep ExpresSProfile radioligand binding; details: 10 micromolar; antagonist radioligand
Protocol: as §1, §2, §3, §4

[8] = molecular target: T6, 5-HT transporter (h) (Homo sapiens, UniProt P31645); experiment: Cerep ExpresSProfile radioligand binding; details: 10 micromolar, antagonist radioligand
T6 construct: Cerep, Inc. (contract screen)
Protocol: as §1, §2, §3, §4

[9] = molecular target: T7, NOP (ORL1) (h) (Homo sapiens, UniProt P41146); experiment: Cerep ExpresSProfile radioligand binding; details: 10 micromolar, agonist radioligand
T7 construct: purchased Cerep (ExpresSProfile)
Protocol: as §1, §2, §3, §4

[10] = molecular target: T8, M3 (h) (Homo sapiens, UniProt P20309); experiment: Cerep ExpresSProfile radioligand binding; details: 10 micromolar; antagonist radioligand; read-out: % Inhibition of Control Specific Binding 2nd
T8 construct: purchased Cerep (ExpresSProfile)
Protocol: as §1, §2, §3, §4

[11] = test system: Cl- channel (GABA-gated); experiment: Cerep ExpresSProfile radioligand binding; details: 10 micromolar; antagonist radioligand
Protocol: as §1, §2, §3, §4

[12] = test system: α2 (non-selective); experiment: Cerep ExpresSProfile radioligand binding; details: 10 micromolar; antagonist radioligand
Protocol: as §1, §2, §3, §4

[13] = molecular target: T9, dopamine transporter (h) (Homo sapiens, UniProt Q01959); experiment: Cerep ExpresSProfile radioligand binding; details: 10 micromolar, antagonist radioligand
T9 construct: Cerep, Inc. (contract screen)
Protocol: as §1, §2, §3, §4

[14] = molecular target: T10, M2 (h) (Homo sapiens, UniProt P08172); experiment: Cerep ExpresSProfile radioligand binding; details: 10 micromolar; antagonist radioligand; read-out: % Inhibition of Control Specific Binding 1st
T10 construct: purchased Cerep (ExpresSProfile)
Protocol: as §1, §2, §3, §4

[15] = molecular target: T11, NTS1 (NT1) (h) (Homo sapiens, UniProt P30989); experiment: Cerep ExpresSProfile radioligand binding; details: 10 micromolar, agonist radioligand
T11 construct: purchased Cerep (ExpresSProfile)
Protocol: as §1, §2, §3, §4

[16] = test system: 3T3 parent line, which does not express Trk receptors; experiment: NIH-3T3 cell survival; format: cell-based, mouse; details: serum-free medium
[17] = read-out: % Inhibition of Control Specific Binding 1st
[18] = read-out: % Inhibition of Control Specific Binding 2nd
[19] = read-out: % Inhibition of Control Specific Binding Mean

T5 sequence (P34969 whole entry): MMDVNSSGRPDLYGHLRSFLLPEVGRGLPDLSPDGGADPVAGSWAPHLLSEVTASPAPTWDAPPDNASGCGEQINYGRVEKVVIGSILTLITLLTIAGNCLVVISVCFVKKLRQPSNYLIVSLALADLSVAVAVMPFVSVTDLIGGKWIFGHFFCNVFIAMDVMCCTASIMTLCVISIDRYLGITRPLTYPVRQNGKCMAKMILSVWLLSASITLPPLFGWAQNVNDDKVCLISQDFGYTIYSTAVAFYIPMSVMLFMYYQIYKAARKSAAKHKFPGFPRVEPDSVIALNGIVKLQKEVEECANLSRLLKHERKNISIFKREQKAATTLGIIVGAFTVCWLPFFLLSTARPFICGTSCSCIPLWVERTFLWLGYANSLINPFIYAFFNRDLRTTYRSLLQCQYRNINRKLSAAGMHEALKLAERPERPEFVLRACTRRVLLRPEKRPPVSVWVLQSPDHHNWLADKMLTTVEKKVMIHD
T9 sequence (Q01959 whole entry): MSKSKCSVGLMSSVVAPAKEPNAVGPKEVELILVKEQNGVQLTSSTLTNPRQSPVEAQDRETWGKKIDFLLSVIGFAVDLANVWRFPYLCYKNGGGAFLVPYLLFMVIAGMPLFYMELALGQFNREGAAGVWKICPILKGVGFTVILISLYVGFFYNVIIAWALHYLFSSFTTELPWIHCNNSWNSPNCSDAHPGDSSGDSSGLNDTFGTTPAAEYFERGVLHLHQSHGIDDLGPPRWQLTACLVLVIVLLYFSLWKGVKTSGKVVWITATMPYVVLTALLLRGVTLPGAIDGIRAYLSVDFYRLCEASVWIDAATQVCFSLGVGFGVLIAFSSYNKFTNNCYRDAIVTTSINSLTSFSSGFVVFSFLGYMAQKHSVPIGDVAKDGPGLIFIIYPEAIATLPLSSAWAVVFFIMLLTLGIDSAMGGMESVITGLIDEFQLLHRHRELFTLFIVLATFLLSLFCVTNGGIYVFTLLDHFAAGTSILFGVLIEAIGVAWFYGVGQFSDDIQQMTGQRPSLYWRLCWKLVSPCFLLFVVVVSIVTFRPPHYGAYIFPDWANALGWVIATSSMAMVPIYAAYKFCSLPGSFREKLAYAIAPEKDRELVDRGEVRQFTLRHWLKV
T6 sequence (P31645 whole entry): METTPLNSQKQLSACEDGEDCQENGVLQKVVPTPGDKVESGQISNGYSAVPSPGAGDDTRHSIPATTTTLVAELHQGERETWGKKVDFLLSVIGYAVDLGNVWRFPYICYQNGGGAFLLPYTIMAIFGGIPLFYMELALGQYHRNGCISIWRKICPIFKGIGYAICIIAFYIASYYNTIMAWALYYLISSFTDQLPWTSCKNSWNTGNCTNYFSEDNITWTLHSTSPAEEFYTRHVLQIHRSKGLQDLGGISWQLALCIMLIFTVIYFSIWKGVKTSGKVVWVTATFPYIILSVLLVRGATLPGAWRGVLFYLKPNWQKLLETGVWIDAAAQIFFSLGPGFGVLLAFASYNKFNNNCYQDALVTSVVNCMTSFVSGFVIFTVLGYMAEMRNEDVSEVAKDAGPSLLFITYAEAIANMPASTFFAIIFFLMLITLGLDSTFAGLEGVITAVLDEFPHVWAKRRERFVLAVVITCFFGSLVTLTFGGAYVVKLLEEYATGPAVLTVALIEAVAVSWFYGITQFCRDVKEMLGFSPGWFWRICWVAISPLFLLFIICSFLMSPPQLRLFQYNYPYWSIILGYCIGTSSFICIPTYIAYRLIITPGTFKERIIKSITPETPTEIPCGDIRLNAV
T11 sequence (P30989 whole entry): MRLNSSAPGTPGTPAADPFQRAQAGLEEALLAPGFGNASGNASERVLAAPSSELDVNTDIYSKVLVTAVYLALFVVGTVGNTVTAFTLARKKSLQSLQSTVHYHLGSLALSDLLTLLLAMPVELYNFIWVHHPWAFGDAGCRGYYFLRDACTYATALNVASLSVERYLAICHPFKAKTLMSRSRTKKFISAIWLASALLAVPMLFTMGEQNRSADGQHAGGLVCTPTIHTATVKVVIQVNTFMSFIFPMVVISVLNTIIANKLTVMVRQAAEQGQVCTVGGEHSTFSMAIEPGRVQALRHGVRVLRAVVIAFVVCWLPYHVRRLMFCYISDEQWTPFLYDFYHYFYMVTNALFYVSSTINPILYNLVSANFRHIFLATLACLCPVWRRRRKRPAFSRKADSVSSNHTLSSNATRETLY
T4 sequence (P41595 whole entry): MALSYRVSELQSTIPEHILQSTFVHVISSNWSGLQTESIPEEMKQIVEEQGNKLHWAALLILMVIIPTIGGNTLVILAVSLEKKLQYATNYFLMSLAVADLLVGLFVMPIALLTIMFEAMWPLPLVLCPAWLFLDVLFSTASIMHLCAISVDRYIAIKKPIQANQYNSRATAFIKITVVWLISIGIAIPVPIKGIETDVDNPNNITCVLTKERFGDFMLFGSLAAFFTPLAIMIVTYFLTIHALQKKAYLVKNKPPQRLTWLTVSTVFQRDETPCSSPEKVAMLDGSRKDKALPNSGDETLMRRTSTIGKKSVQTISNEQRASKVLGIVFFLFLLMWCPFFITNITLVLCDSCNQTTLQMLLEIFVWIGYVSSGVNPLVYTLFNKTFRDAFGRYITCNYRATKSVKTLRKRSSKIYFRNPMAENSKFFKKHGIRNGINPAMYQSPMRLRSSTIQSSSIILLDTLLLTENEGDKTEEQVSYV
T7 sequence (P41146 whole entry): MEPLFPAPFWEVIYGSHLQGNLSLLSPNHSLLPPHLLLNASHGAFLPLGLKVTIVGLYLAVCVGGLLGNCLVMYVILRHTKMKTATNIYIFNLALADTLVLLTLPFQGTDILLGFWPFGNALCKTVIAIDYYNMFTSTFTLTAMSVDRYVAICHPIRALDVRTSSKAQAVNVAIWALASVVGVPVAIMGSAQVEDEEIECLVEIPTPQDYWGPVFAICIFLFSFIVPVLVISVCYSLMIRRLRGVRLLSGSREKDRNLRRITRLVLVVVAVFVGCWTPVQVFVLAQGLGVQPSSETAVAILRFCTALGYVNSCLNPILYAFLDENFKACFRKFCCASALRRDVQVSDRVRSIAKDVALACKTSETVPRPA
T10 sequence (P08172 whole entry): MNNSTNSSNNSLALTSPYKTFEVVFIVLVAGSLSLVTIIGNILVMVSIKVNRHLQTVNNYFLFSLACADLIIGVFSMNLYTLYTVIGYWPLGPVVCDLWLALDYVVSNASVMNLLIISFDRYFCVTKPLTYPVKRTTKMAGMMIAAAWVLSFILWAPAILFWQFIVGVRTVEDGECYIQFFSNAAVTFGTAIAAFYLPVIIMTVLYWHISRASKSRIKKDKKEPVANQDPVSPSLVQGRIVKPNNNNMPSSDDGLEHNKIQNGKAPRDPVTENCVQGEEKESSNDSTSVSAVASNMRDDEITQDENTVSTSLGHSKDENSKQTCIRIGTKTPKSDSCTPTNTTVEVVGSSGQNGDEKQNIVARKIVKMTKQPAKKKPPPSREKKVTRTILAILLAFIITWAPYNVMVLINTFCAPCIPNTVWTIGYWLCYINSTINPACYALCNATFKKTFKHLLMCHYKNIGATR
T8 sequence (P20309 whole entry): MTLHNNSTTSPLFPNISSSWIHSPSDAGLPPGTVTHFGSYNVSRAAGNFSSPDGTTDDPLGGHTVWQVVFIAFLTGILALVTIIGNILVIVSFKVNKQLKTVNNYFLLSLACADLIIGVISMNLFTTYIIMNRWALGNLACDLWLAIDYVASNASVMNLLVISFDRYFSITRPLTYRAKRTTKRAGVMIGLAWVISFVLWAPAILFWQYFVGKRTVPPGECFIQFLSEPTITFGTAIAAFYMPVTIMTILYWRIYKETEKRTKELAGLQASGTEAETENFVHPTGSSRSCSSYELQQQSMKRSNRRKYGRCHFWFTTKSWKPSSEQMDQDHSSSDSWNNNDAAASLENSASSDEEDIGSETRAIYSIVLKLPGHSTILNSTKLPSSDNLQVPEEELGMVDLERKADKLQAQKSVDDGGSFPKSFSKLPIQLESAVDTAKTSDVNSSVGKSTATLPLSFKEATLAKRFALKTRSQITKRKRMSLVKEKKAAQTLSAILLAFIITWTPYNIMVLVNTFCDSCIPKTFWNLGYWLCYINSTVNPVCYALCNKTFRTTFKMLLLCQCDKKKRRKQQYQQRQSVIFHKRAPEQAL
T1 sequence (P29371 whole entry): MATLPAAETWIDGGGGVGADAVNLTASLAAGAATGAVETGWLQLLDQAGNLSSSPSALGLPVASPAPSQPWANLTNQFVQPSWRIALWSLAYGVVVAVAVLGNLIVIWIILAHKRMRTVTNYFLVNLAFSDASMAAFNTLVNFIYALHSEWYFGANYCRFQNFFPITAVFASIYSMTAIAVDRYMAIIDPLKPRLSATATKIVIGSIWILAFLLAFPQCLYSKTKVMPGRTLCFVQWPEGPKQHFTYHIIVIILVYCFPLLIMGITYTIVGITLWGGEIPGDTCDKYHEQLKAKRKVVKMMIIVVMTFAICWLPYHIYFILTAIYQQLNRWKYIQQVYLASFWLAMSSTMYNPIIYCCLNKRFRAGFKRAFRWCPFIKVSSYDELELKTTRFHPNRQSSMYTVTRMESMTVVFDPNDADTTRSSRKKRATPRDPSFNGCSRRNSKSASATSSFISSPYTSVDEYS
T3 sequence (P41143 whole entry): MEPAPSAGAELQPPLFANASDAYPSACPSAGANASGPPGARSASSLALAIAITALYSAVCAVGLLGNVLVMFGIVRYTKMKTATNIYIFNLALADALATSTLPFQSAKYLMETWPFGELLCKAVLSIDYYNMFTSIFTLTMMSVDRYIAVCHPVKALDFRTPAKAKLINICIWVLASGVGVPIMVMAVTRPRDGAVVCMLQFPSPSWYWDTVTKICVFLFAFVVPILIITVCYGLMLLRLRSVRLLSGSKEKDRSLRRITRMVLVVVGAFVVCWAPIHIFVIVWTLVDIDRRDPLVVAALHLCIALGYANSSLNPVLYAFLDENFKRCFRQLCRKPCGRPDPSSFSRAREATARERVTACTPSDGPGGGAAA

Structure (SMILES): COCCN(C)C(=O)c1cc(C(=O)N(C)CCOC)cc(C(=O)N(C)CCOC)c1 [PTX-BD4-3, benzene-1,3,5-tricarboxylic acid tris-[(2-methoxy-ethyl)-methyl-amide]]
- foot slip errors [1]: no reduction
- inhibition at 10 µM [2]: 0.4%
- inhibition at 10 µM [3, 17]: 6.9%
- inhibition at 10 µM [3, 18]: 13.4%
- inhibition at 10 µM [3, 19]: 10.1%
- inhibition at 10 µM [4]: 1.9%
- inhibition at 10 µM [5, 17]: 12.6%
- inhibition at 10 µM [5, 19]: 3.5%
- inhibition at 10 µM [6, 17]: 8.1%
- inhibition at 10 µM [6, 18]: 14.7%
- inhibition at 10 µM [6, 19]: 11.4%
- % Inhibition of Control Specific Binding 1st [7]: 0%
- inhibition at 10 µM [8, 17]: 16.3%
- inhibition at 10 µM [8, 18]: 5.5%
- inhibition at 10 µM [8, 19]: 10.9%
- inhibition at 10 µM [9, 18]: 6.3%
- inhibition at 10 µM [9, 19]: 0.1%
- inhibition at 10 µM [10]: 0.8%
- % Inhibition of Control Specific Binding 1st [11]: 2.7%
- % Inhibition of Control Specific Binding 1st [12]: 1.8%
- % Inhibition of Control Specific Binding 2nd [12]: 4.7%
- % Inhibition of Control Specific Binding Mean [12]: 3.2%
- inhibition at 10 µM [13, 17]: 2.2%
- inhibition at 10 µM [13, 18]: 0.9%
- inhibition at 10 µM [13, 19]: 1.6%
- inhibition at 10 µM [14]: 6.3%
- inhibition at 10 µM [15, 17]: 11.2%
- inhibition at 10 µM [15, 18]: 2.6%
- inhibition at 10 µM [15, 19]: 6.9%
- survival of the 3T3 parent line [16]: did not support survival

From article PMC7710018, “Restoration of motor learning in a mouse model of Rett syndrome following long-term treatment with a novel small-molecule activator of TrkB” (Disease Models & Mechanisms, 2020)
